Results reported in patent US12157730B2, “Heteroaryl derivative, method for producing same, and pharmaceutical composition comprising same as effective component” (VORONOI INC., priority 2019, dated 2024).

The molecules below were run against T1, Ba/F3 cell EGFR Exon20 ins NPH (Homo sapiens, UniProt P00533, INS773NPH) (assay: Ba/F3 cell proliferation suppression, EGFR Exon20 ins NPH). Conditions: GI50 class; Ba/F3 cell line with NPH inserted at Exon20 of EGFR; 72 hours.
T1 construct: expressed in transfected cells; host or cells: Ba/F3
Assay type: cell-based
Outline: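 72 h compound exposure, 0.3 nM–50 um (12 points, 3:1 dilution in DMSO); viability by CellTiter-Glo luminescence. Ba/F3 medium: RPMI-1640, 10% FBS, 5 ng/ml IL-3, 1 ug/ml puromycin for transduced cells. GI50 vs control, n=3.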

SMILES | Ba/F3 (NPH) Activity
C=CC(=O)Nc1cc(Nc2cc(N3OCC[C@@H]3c3cc(F)cc(Cl)c3)ncn2)c(OC)cc1N1CCC(N2CCN(C3CCC3)CC2)CC1 [Example 189, N-(5-((6-((R)-3-(3-chloro-5-fluorophenyl)isoxazolidine-2-yl)pyrimidine-4-yl)amino)-2-(4-(4-cyclobutylpiperazine-1-yl)piperidine-1-yl)-4-methoxyphenyl) acrylamide] | A (GI50 < 50 nM)
C=CC(=O)Nc1cc(Nc2cc(N3OCC[C@@H]3c3ccc(F)cc3)ncn2)c(OC)cc1N1CCC(N2CCN(C3COC3)CC2)CC1 [Example 85, N-(5-((6-((R)-3-(4-fluorophenyl)isoxazolidine-2-yl)pyrimidine-4-yl)amino)-4-methoxy-2-(4-(4-(oxetane-3-yl)piperazine-1-yl)piperidine-1-yl)phenyl) acrylamide] | A (GI50 < 50 nM)
C=CC(=O)Nc1cc(Nc2cc(N3OCC[C@@H]3c3ccc(F)c(Cl)c3)ncn2)c(OC)cc1N1CCC(N2C[C@H]3C[C@@H]2CO3)CC1 [Example 257, N-(2-(4-((1R,4R)-2-oxa-5-azabicyclo[2.2.1]heptane-5-yl)piperidine-1-yl)-5-((6-((R)-3-(3-chloro-4-fluorophenyl)isoxazolidine-2-yl)pyrimidine-4-yl)amino)-4-methoxyphenyl) acrylamide] | A (GI50 < 50 nM)
C=CC(=O)Nc1cc(Nc2cc(N3OCC[C@@H]3c3cccc(C(F)(F)F)c3)ncn2)c(OC)cc1N(C)CCN(C)C [compound 449, N-(2-((2-(dimethylamino)ethyl)(methyl)amino)-4-methoxy-5-((6-((R)-3-(3-(trifluoromethyl)phenyl)isoxazolidine-2-yl)pyrimidine-4-yl)amino)phenyl)acrylamide] | A (GI50 < 50 nM)
C=CC(=O)Nc1cc(Nc2cc(N3OCC[C@@H]3c3ccc4ccccc4c3)ncn2)c(OC)cc1N1CC[C@@H](N(C)C)C1 [compound 513, N-(2-((R)-3-(dimethylamino)pyrolidine-1-yl)-4-methoxy-5-((6-((R)-3-(naphthalene-2-yl)isoxazolidine-2-yl)pyrimidine-4-yl)amino)phenyl)acrylamide] | B (50 nM ≤ GI50 < 500 nM)
C=CC(=O)Nc1cc(Nc2cc(N3OCC[C@@H]3c3cc(F)cc(F)c3)ncn2)c(OC)cc1N1CCC(N2CCN(CC3CC3)CC2)CC1 [Example 92, N-(2-(4-(4-(cyclopropylmethyl)piperazine-1-yl)piperidine-1-yl)-5-((6-((R)-3-(3,5-difluorophenyl)isoxazolidine-2-yl)pyrimidine-4-yl)amino)-4-methoxyphenyl) acrylamide] | A (GI50 < 50 nM)
C=CC(=O)Nc1cc(Nc2cc(N3OCC[C@H]3c3c(F)ccc(F)c3Cl)ncn2)c(OC)cc1N1CCC(N2CCN(C3CC3)CC2)CC1 [compound 936, N-(5-((6-((S)-3-(2-chloro-3,6-difluorophenyl)isoxazolidine-2-yl)pyrimidine-4-yl)amino)-2-(4-(4-cyclopropylpiperazine-1-yl)piperidine-1-yl)-4-methoxyphenyl) acrylamide] | B (50 nM ≤ GI50 < 500 nM)
C=CC(=O)Nc1cc(Nc2cc(N3OCC[C@@H]3c3ccc(F)cc3F)ncn2)c(OC)cc1N1CCC(N2CCC(N3CCOCC3)CC2)CC1 [compound 426, N-(5-((6-((R)-3-(2,4-difluorophenyl)isoxazolidine-2-yl)pyrimidine-4-yl)amino)-4-methoxy-2-(4-morpholino-[1,4'-bipiperidine]-1'-yl)phenyl)acrylamide] | A (GI50 < 50 nM)
C=CC(=O)Nc1cc(Nc2cc(N3OCC[C@@H]3c3ccc(C)nc3)ncn2)c(OC)cc1N1CCC(N2CCOCC2)CC1 [Example 45, N-(4-methoxy-5-((6-((R)-3-(6-methylpyridine-3-yl)isoxazolidine-2-yl)pyrimidine-4-yl)amino)-2-(4-morpholinopiperidine-1-yl)phenyl) acrylamide] | B (50 nM ≤ GI50 < 500 nM)
C=CC(=O)Nc1cc(Nc2cc(N3OCC[C@@H]3c3ccc4ccccc4c3)ncn2)c(OC)cc1N1CCC(N2CCN(C3CC3)CC2)CC1 [Example 151, N-(2-(4-(4-cyclopropylpiperazine-1-yl)piperidine-1-yl)-4-methoxy-5-((6-((R)-3-(naphthalene-2-yl)isoxazolidine-2-yl)pyrimidine-4-yl)amino)phenyl)acrylamide] | B (50 nM ≤ GI50 < 500 nM)
C=CC(=O)Nc1cc(Nc2cc(N3OCC[C@@H]3c3ccccc3)ncn2)c(OC)cc1N1CCC(N2CC[C@@H](N(C)C)C2)CC1 [compound 787, N-(2-(4-((R)-3-(dimethylamino)pyrolidine-1-yl)piperidine-1-yl)-4-methoxy-5-((6-((R)-3-phenylisoxazolidine-2-yl)pyrimidine-4-yl)amino)phenyl) acrylamide] | A (GI50 < 50 nM)
C=CC(=O)Nc1cc(Nc2cc(N3OCC[C@@H]3c3ccc(F)c(Cl)c3)ncn2)c(OC)cc1N1CCC(N2CCN(C)[C@@H](C)C2)CC1 [compound 900, N-(5-((6-((R)-3-(3-chloro-4-fluorophenyl)isoxazolidine-2-yl)pyrimidine-4-yl)amino)-2-(4-((S)-3,4-dimethylpiperazine-1-yl)piperidine-1-yl)-4-methoxyphenyl) acrylamide] | A (GI50 < 50 nM)
C=CC(=O)Nc1cc(Nc2cc(N3OCC[C@@H]3c3cccc(Cl)c3)ncn2)c(OC)cc1N1CCC(N2C[C@@H](C)O[C@@H](C)C2)CC1 [compound 415, N-(5-((6-((R)-3-(3-chlorophenyl)isoxazolidine-2-yl)pyrimidine-4-yl)amino)-2-(4-((2S,6R)-2,6-dimethylmorpholino)piperidine-1-yl)-4-methoxyphenyl) acrylamide] | A (GI50 < 50 nM)
C=CC(=O)Nc1cc(Nc2cc(N3OCC[C@@H]3c3cccc(Cl)c3)ncn2)c(OC)cc1N(C)CCN(C)C [compound 359, N-(5-((6-((R)-3-(3-chlorophenyl)isoxazolidine-2-yl)pyrimidine-4-yl)amino)-2-((2-(dimethylamino)ethyl)(methyl)amino)-4-methoxyphenyl) acrylamide] | A (GI50 < 50 nM)
C=CC(=O)Nc1cc(Nc2cc(N3OCC[C@@H]3c3ccc(Cl)cc3F)ncn2)c(OC)cc1N1CCC(N(C(=O)C=C)C2CCN(C(C)C)CC2)CC1 [compound 402, N-(1-(2-acrylamido-4-((6-((R)-3-(4-chloro-2-fluorophenyl)isoxazolidine-2-yl)pyrimidine-4-yl)amino)-5-methoxyphenyl)piperidine-4-yl)-N-(1-isopropylpiperidine-4-yl)acrylamide] | A (GI50 < 50 nM)
C=CC(=O)Nc1cc(Nc2cc(N3OCC[C@@H]3c3ccc(Cl)cc3)ncn2)c(OC)cc1N1CCC(N2CCN(C)CC2)CC1 [compound 732, N-(5-((6-((R)-3-(4-chlorophenyl)isoxazolidine-2-yl)pyrimidine-4-yl)amino)-4-methoxy-2-(4-(4-methylpiperazine-1-yl)piperidine-1-yl)phenyl) acrylamide] | A (GI50 < 50 nM)
C=CC(=O)Nc1cc(Nc2cc(N3OCC[C@@H]3c3cccc(F)c3)ncn2)c(OC)cc1N1CCOCC1 [compound 840, N-(5-((6-((R)-3-(3-fluorophenyl)isoxazolidine-2-yl)pyrimidine-4-yl)amino)-4-methoxy-2-morpholinophenyl) acrylamide] | A (GI50 < 50 nM)
C=CC(=O)Nc1cc(Nc2cc(N3OCC[C@@H]3c3ccc(F)c(Cl)c3)ncn2)c(OC)cc1N1CCC(N2CCN(C)[C@H](C)C2)CC1 [compound 901, N-(5-((6-((R)-3-(3-chloro-4-fluorophenyl)isoxazolidine-2-yl)pyrimidine-4-yl)amino)-2-(4-((R)-3,4-dimethylpiperazine-1-yl)piperidine-1-yl)-4-methoxyphenyl) acrylamide] | A (GI50 < 50 nM)
C=CC(=O)Nc1cc(Nc2cc(N3OCC[C@@H]3c3cccc(C#N)c3)ncn2)c(OC)cc1N1CCC(N2CCN(C(C)C)CC2)CC1 [compound 494, N-(5-((6-((R)-3-(3-cyanophenyl)isoxazolidine-2-yl)pyrimidine-4-yl)amino)-2-(4-(4-isopropylpiperazine-1-yl)piperidine-1-yl)-4-methoxyphenyl) acrylamide] | A (GI50 < 50 nM)
C=CC(=O)Nc1cc(Nc2cc(N3OCC[C@@H]3c3cccc(Cl)c3Cl)ncn2)c(OC)cc1N1CCN(C2CCCC2)CC1 [compound 563, N-(2-(4-cyclopentylpiperazine-1-yl)-5-((6-((R)-3-(2,3-dichlorophenyl)isoxazolidine-2-yl)pyrimidine-4-yl)amino)-4-methoxyphenyl) acrylamide] | A (GI50 < 50 nM)
C=CC(=O)Nc1cc(Nc2cc(N3OCC[C@@H]3c3cccc(F)c3F)ncn2)c(OC)cc1N1CCC(N2CC3CCC(C2)N3C2CC2)CC1 [Example 135, N-(2-(4-(8-cyclopropyl-3,8-diazabicyclo[3.2.1]octan-3-yl)piperidine-1-yl)-5-((6-((R)-3-(2,3-difluorophenyl)isoxazolidine-2-yl)pyrimidine-4-yl)amino)-4-methoxyphenyl) acrylamide] | A (GI50 < 50 nM)
C=CC(=O)Nc1cc(Nc2cc(N3OCC[C@@H]3c3ccc(C)nc3)ncn2)c(OC)cc1N1C[C@@H]2C[C@H]1CO2 [Example 233, N-(2-((1S,4S)-2-oxa-5-azabicyclo[2.2.1]heptane-5-yl)-4-methoxy-5-((6-((R)-3-(6-methylpyridine-3-yl)isoxazolidine-2-yl)pyrimidine-4-yl)amino)phenyl) acrylamide] | C (500 nM ≤ GI50 < 5000 nM)
C=CC(=O)Nc1cc(Nc2cc(N3OCC[C@@H]3c3ccc(Cl)cc3F)ncn2)c(OC)cc1N1CCC(N2CCOCC2)CC1 [compound 455, N-(5-((6-((R)-3-(4-chloro-2-fluorophenyl)isoxazolidine-2-yl)pyrimidine-4-yl)amino)-4-methoxy-2-(4-morpholinopiperidine-1-yl)phenyl)acrylamide] | A (GI50 < 50 nM)
